Results reported in EP0275431A1, “Novel anthracycline derivatives, a process for preparing same and their use as medicaments” (MICROBIAL CHEMISTRY RESEARCH FOUNDATION, priority 1986, dated 1988).
Values after ≈ are worked out from the molar mass of the structure shown.

Columns and labels:
[1] = Solubility in phosphate buffer solution (pH 7.4) at room temperature; assay type: physicochemical; conditions: aqueous buffer
Description: The phosphate buffer solution was prepared by mixing 0.05M potassium dihydrogenphosphate (KH2PO4) with an aqueous solution of sodium hydroxide.

[2] = test system: mouse leukemia L-1210 cells; assay: Antitumor activity: increase of life span of mice transplanted intraperitoneally with leukemia L-1210 cells; conditions: beginning 24 hours after transplantation, observed for 30 days, CDF mice
Description: To assess the antitumor activity of the compounds of this invention against tumors in test animals, 1 x 10^5 mouse leukemia L-1210 cells mouse were transplanted intraperitoneally to CDF, mice. […] The survival time, in days, of the compound-treated group (T) was calculated, and that of the control group (C) receiving physiological saline solution alone was also calculated. Then, the increase of life span (T/C, %) was determined.

[3] = Dose 0.3 mg/kg/day intraperitoneally for 9 consecutive days
[4] = Dose 0.6 mg/kg/day intraperitoneally for 9 consecutive days
[5] = Dose 1.25 mg/kg/day intraperitoneally for 9 consecutive days
[6] = Dose 2.5 mg/kg/day intraperitoneally for 9 consecutive days
[7] = Dose 5 mg/kg/day intraperitoneally for 9 consecutive days
[8] = Dose 0.15 mg/kg/day intraperitoneally for 9 consecutive days

For `COc1cccc2c1C(=O)c1c(O)c3c(c(O)c1C2=O)CC(O)(C(=O)COC(=O)CCC(=O)O)CC3OC1OC(C)C(O)C(O)C1F` [Compound 5 of Example 2(b), 7-0-(2,6-dideoxy-2-fluoro-a-L-talopyranosyl) adriamycinone 14-0-hemisuccinate], the solubility [1] was 25 mg/mL (≈ 37.7 mM), the “Increase of life span (T/C, %)” value [2, 3] was 124% and the “Increase of life span (T/C, %)” value [2, 4] was greater than 124%. The “Increase of life span (T/C, %)” value [2, 5] was greater than 292%, the “Increase of life span (T/C, %)” value [2, 6] was greater than 353% and the “Increase of life span (T/C, %)” value [2, 7] was greater than 353%.
With `COc1cccc2c1C(=O)c1c(O)c3c(c(O)c1C2=O)CC(O)(C(=O)COC(=O)CCCCC(=O)O)CC3OC1OC(C)C(O)C(O)C1F` [Compound 9 of Example 4(b), 7-0-(2.6-dideoxy-2-fluoro-a-L-talopyranosyl) adriamycinone 14-0-hemiadipate] the solubility [1] was 33 mg/mL (≈ 47.8 mM), the “Increase of life span (T/C, %)” value [2, 8] was 112% and the “Increase of life span (T/C, %)” value [2, 3] was 141%. For the same compound, the “Increase of life span (T/C, %)” value [2, 4] was 165%, the “Increase of life span (T/C, %)” value [2, 5] was 265% and the “Increase of life span (T/C, %)” value [2, 6] was greater than 353%. For the same compound, the “Increase of life span (T/C, %)” value [2, 7] was greater than 353%.
In the case of `COc1cccc2c1C(=O)c1c(O)c3c(c(O)c1C2=O)CC(O)(C(=O)COC(=O)CCCCCCC(=O)O)CC3OC1OC(C)C(O)C(O)C1F` [Compound 13 of Example 6(b), 7-0-(2,6-dideoxy-2-fluoro-α-L-talopyranosyl) adriamycinone 14-0-hemisuberate], the solubility [1] is reported as 30 mg/mL (≈ 41.7 mM).
With `COc1cccc2c1C(=O)c1c(O)c3c(c(O)c1C2=O)CC(O)(C(=O)CO)CC3OC1OC(C)C(O)C(O)C1F` [Control, 7-O-(2,6-dideoxy-2-fluoro-α-L-talopyranosyl)adriamycinone, reference compound] the solubility [1] was less than 1 mg/mL.
For `COc1cccc2c1C(=O)c1c(O)c3c(c(O)c1C2=O)CC(O)(C(=O)COC(=O)CCCCCC(=O)O)CC3OC1OC(C)C(O)C(O)C1F` [Compound 11 of Example 5(b), 7-0-(2,6-dideoxy-2-fluoro-α-L-talopyranosyl) adriamycinone 14-0-hemipimelate], the solubility [1] was 33 mg/mL (≈ 46.8 mM), the “Increase of life span (T/C, %)” value [2, 8] was 165% and the “Increase of life span (T/C, %)” value [2, 3] was 171%. For the same compound, the “Increase of life span (T/C, %)” value [2, 4] was 176%, the “Increase of life span (T/C, %)” value [2, 5] was greater than 294% and the “Increase of life span (T/C, %)” value [2, 6] was greater than 271%. For the same compound, the “Increase of life span (T/C, %)” value [2, 7] was greater than 353%.
For `CCCCC(=O)OCC(=O)C1(O)Cc2c(O)c3c(c(O)c2C(OC2OC(C)C(O)C(O)C2F)C1)C(=O)c1c(OC)cccc1C3=O` [Compound 3 of Example 1(b), 7-0-(2.6-dideoxy-2-fluoro-α-L-talopyranosyl) adriamycinone 14-0-valerate], the solubility [1] was less than 1 mg/mL, the “Increase of life span (T/C, %)” value [2, 8] was 135% and the “Increase of life span (T/C, %)” value [2, 3] was 135%. The “Increase of life span (T/C, %)” value [2, 4] was greater than 353%, the “Increase of life span (T/C, %)” value [2, 5] was greater than 353% and the “Increase of life span (T/C, %)” value [2, 6] was greater than 282%. The “Increase of life span (T/C, %)” value [2, 7] was greater than 306%.
With `COc1cccc2c1C(=O)c1c(O)c3c(c(O)c1C2=O)CC(O)(C(=O)COC(=O)CCCC(=O)O)CC3OC1OC(C)C(O)C(O)C1F` [Compound 7 of Example 3(b), 7-0-(2.6-dideoxy-2-fluoro-a-L-talopyranosyl) adriamycinone 14-0-hemiglutarate] the solubility [1] was 26 mg/mL (≈ 38.4 mM), the “Increase of life span (T/C, %)” value [2, 8] was 129% and the “Increase of life span (T/C, %)” value [2, 3] was 129%. The “Increase of life span (T/C, %)” value [2, 4] was greater than 235%, the “Increase of life span (T/C, %)” value [2, 5] was 282% and the “Increase of life span (T/C, %)” value [2, 6] was greater than 294%. For the same compound, the “Increase of life span (T/C, %)” value [2, 7] was greater than 306%.
